Like-named read-outs stand apart in the source and are kept apart here.
Assays:
[1] = Randall-Selitto test: analgesia produced by opiates; assay type: in vivo, rats; conditions: for t (vs controls): Student t
Description: Analgesic activity in the Randall-Selitto test
The method is that described by Winters et al (J. Pharmacol. Exp. Ther. 150, 165 (1965). Groups of five female rats having an average weight of about 100 g and which have not been fasting are used. A 20% saline solution of yeast is administered into the sub-plantar region of the right hind leg.
The compounds to be tested are administered s.c. 2 hours after the injection of inflammatory agent 0.5 hours after the administration of the drugs, the pain threshold is determined by measuring the pressure needed to induce a flight reaction in the animal. The results obtained are given in Table No. 3 which records the groups treated and the doses administered, the pain threshold expressed as a pressure exerted in mmHg to cause the pain stimulus (average±S.E.) and a statistical evaluation of the results of the various treated groups by the Student "t" test.

[2] = assay type: in vivo, rats
Description: The method is that described by Harris et al. (J. Pharmcol. Exp. Ther. 143 (1964) 141-148).
Male rats are used which have a weight of about 150-200 g and which have not been fasting. A point is chosen on the tail and this is irradiated by a heat source (75° C.) and the time (in seconds) for which the animal remains without moving its tail is measured.
A maximum period of time under the heat source of 8 seconds is chosen after which the animal is, in any case, removed in order to avoid tissue damage. The measurement is effected before (controls) and after treatment with the drugs. […] The percentage variation is calculated for each individual animal by the following formula: [formula] (time measurements are in seconds)
The measurements are carried out 10, 20, 30, 45, 60 and 90 minutes after treatment with the analgesics.

[3] = Hot plate test: potentiation of analgesic activity of opiates; assay type: in vivo, rats; conditions: morphine 2.5 or methadone 1 mg/kg s.c. alone
Description: The method is that described by Eddy et al. (J. Pharmac. Exp. Therm. 107, 385 (1953)).
Groups of five male rats having a weight of about 150 g and which have not been fasting are used.
The animals are placed on a metal plate which is on the bottom of a transparent cylinder heated to 55°±1° C. by an azeotropic boiling mixture (1:1 acetone-ethyl formate). The time which passes between the moment at which the animal is placed on the hot plate and the moment at which it licks its feet or tries to jump out of the cylinder is defined as the reaction time. The control reaction time is measured 10 and 5 minutes before the administration of the drugs and 10, 20, 30, 45, 60, 90 minutes afterwards. The animals are left on the plate for a maximum period of 30 seconds. The response to the administration of the product is considered positive if at least a doubling of the normal reaction time is seen. The results obtained are given in Table 2 which records the groups treated, the doses administered and the stay times on the plate expressed as the number of positive responses over the number treated.

in vivo = conditions: mouse, sc
Description: The drug (or drugs) under examination was administered sub-cutaneously. The animals were kept under observation for 15 days after the administration.
Ten animals were used for each dose.

[4] = assay type: in vivo, rats; conditions: morphine 5 mg/kg i.p. repeated
Description: Activity of proglumide as an antagonist to the tolerance induced by opiates
Groups of five male rats having a weight of about 200-250 g were used.
The determination of the pain threshold was effected 1, 3, 6, 9 and 12 hours after the first treatment by the Tail Flick test.
The data given in Table 5 indicate the percentage variations in the latency (appearance of pain) before and after treatment with the drugs.

[5] = Potentiation of analgesic effect of enkephalinamide (DALA) i.c.v. (Tail Flick test); assay type: in vivo, rats; conditions: alone i.c.v.: proglumide 1 or DALA 10 μg/kg
Description: Potentiation of the analgesic activities of enkephalins induced by proglumide
In order to check one of the possible mechanisms for the action of proglumide, that is its possible inhibition of the enzymatic degradation of endogenous enkephalins, the following experiment was carried out:
A cannula was implanted in the right lateral ventricle of male rats having a weight of 150-200 g (groups of five animals were used) in order to allow the intracerebroventricular (I.C.V.) administration of drugs according to the method of Noble et al (Life Science 6, (1970) 281-291). […]

[6] = higher dose alone s.c.: morphine 2, propoxyphene 25, pentazocine 6 mg/kg
[7] = lower dose alone s.c.: morphine 0.5, propoxyphene 7.5, pentazocine 2 mg/kg

## CCC(=O)O[C@](Cc1ccccc1)(c1ccccc1)[C@H](C)CN(C)C [Dextropropoxyphene]
[1]; [6]
  t (vs controls): 3.71
  P (vs controls): < 0.01
  Pain threshold (mmHg) M ± S.E.: 50.7 ± 10.02 mmHg
[1]; [7]
  t (vs controls): 3.34
  P (vs controls): < 0.05
  Pain threshold (mmHg) M ± S.E.: 37.5 ± 7.12 mmHg
[2]; rat, in vivo
  X, potency ratio with respect to morphine = 1: 1
  average percentage variation in latency M (1-90') ± S.E.: 33.48 ± 7.16

## CCC(=O)C(CC(C)N(C)C)(c1ccccc1)c1ccccc1 (centres unmarked) [Methadone]
[3]; 10 min
  positive responses / treated: 1/5
[3]; 20 min
  positive responses / treated: 2/5
[3]; 30 min
  positive responses / treated: 1/5
[3]; 45 min
  positive responses / treated: 2/5
[3]; 60 min
  positive responses / treated: 1/5
[3]; 90 min
  positive responses / treated: 1/5
[3]; total over 10-90 min
  A* = Tot. positive X/30: 8
In vivo
  LD50 at 360 h: 53.5 mg/kg

## CN1CC[C@]23c4c5ccc(O)c4O[C@H]2[C@@H](O)C=C[C@H]3[C@H]1C5 [Morphine]
[2]; 10 min, morphine 3 or dextropropoxyphene 6 mg/kg alone
  percentage variation in the latency of the pain sensation: 29.0 ± 20.4%
[2]; 20 min, morphine 3 or dextropropoxyphene 6 mg/kg alone
  percentage variation in the latency of the pain sensation: 35.0 ± 9.4%
[2]; 30 min, morphine 3 or dextropropoxyphene 6 mg/kg alone
  percentage variation in the latency of the pain sensation: 71.4 ± 12.1%
[2]; 45 min, morphine 3 or dextropropoxyphene 6 mg/kg alone
  percentage variation in the latency of the pain sensation: 49.3 ± 21.3%
[2]; 60 min, morphine 3 or dextropropoxyphene 6 mg/kg alone
  percentage variation in the latency of the pain sensation: 38.8 ± 23.9%
[2]; 90 min, morphine 3 or dextropropoxyphene 6 mg/kg alone
  percentage variation in the latency of the pain sensation: 38.3 ± 20.1%
[2]; mean 1-90 min, morphine 3 or dextropropoxyphene 6 mg/kg alone
  average percentage variation in latency M (1-90') ± S.E.: 43.62 ± 7.37%
[4]; 1 h
  percentage variation in the latency: 58.98 ± 16.3%
[4]; 3 h
  percentage variation in the latency: 67.58 ± 11.1%
[4]; 6 h
  percentage variation in the latency: 30.0 ± 15.3%
[4]; 9 h
  percentage variation in the latency: 38.62 ± 8.7%
[4]; 12 h
  percentage variation in the latency: 23.1 ± 8.6%

## CC(C)=CCN1CCC2(C)c3cc(O)ccc3CC1C2C (centres unmarked) [Pentazocine]
[1]; [6]
  t (vs controls): 6.63
  P (vs controls): < 0.001
  Pain threshold (mmHg) M ± S.E.: 48.6 ± 4.93 mmHg
[1]; [7]
  t (vs controls): 2.50
  P (vs controls): < 0.05
  Pain threshold (mmHg) M ± S.E.: 27.9 ± 5.71 mmHg

## D-ala-methionine-enkephalinamide [DALA]
[5]; 5 min
  % variation in the latency to pain: 61.06 ± 11.8%
[5]; 15 min
  % variation in the latency to pain: 51.04 ± 4.6%
[5]; 30 min
  % variation in the latency to pain: 40.00 ± 9.04%
[5]; 45 min
  % variation in the latency to pain: 25.24 ± 7.7%
[5]; 60 min
  % variation in the latency to pain: 14.68 ± 9.2%
[5]; 90 min
  % variation in the latency to pain: 10.06 ± 8.3%
[5]
  Average (0 → 90) % variation in the latency to pain: 33.7 ± 8.3%
